# Experimental data reported in patent US10537523B2, “Oral suspension comprising telmisartan” (Boehringer Ingelheim Vetmedica GmbH, priority 2009, dated 2020).
# Assay: pH-dependent solubility of telmisartan in aqueous formulation
# Format: physicochemical
# Conditions: concentrations of active substance greater than 1 mg/ml
# Source text: The aim of the present invention is to provide a pharmaceutical solution, preferably a drinkable pharmaceutical solution containing an angiotensin-II-receptor antagonist. Preferred angiotensin II receptor antagonists are the substances known by the following INN names: candesartan, eprosartan, irbesartan, losartan, olmesartan, tasosartan, telmisartan and valsartan, and the pharmaceutically acceptable salts, hydrates or polymorphs thereof. The concentration of the angiotensin-II-receptor antagonist, preferably telmisartan, needed in the solution in order to achieve therapeutic doses should be between 1 mg/ml and 10 mg/ml. Moreover, because of the strongly pH-dependent solubility profile of telmisartan an aqueous formulation should have a pH that is either less than 2 or more than 10, in order to ensure a physically stable solution.
# The very powerfully astringent effect of such acidic solutions makes acidic formulations of this kind totally unsuitable for long-term use particularly in children but also in domestic pets such as dogs and cats.
# It has thus been shown that the stability of a drinkable telmisartan solution is dependent on the amount of reducing sugar contained in the sugar alcohol. The stability of a drinkable telmisartan solution deteriorates as the content of reducing sugars increases. […]
compound,measurement,value
"CCCc1nc2c(C)cc(-c3nc4ccccc4n3C)cc2n1Cc1ccc(-c2ccccc2C(=O)O)cc1 [telmisartan, 4′-((2-n-propyl-4-methyl-6-(1-methylbenz-imidazol-2-yl)-benzimidazol-1-yl)methyl)biphenyl-2-carboxylic acid]",pH needed for dissolved active substance in acid range,less than 1.5
